Like-named read-outs stand apart in the source and are kept apart here.
How the values were obtained:
[1] = 0.1% aqueous solution at 25° C.; water 72 dynes/cm; cited from earlier work
[2] = Reduction in surface tension of water; assay type: physicochemical
Procedure: The ‘liquid alcohol ether’ as used herein like 2-ethyl hexyl glyceryl ether is also a surfactant where the hydrophobe is provided by octyl group and the hydrophilic portion is the two hydroxyl groups of glycerine moiety and the ether linkage.
A mixture of octanoic acid (114 g, […]), BHT (0.3 g) and monoethanol amine (61 g, […]) is stirred under nitrogen blanket in a pressure vessel at 140° C. for 4 hr and then the temperature is raised to 165° C. for additional one hour. At this stage, acid value is normally found to be around 5 or less. The reaction was then cooled under mild vacuum to 60° C. and the molten mass is converted into off-white flakes (148 g, 95%) by pouring it on a glass plate. (Melting point 62-64° C., acid value 5, IR (KBr): 1640 cm^−1 (carbonyl of amide), 1556 cm^−1, 2919 cm^−1, 3289 cm^−1 (NH of amide) Reduction is surface tension of water: 0.05% solution, 38.5 dyne/cm, 0.1% solution 30.5 dyne/cm.

[3] = system: Candida albicans ATCC 10231; assay: Minimum inhibitory concentration; assay type: cell-based; conditions: ATCC10231
[4] = system: Pseudomonas aeruginosa Immuno type IV; assay: Minimum inhibitory concentration; assay type: cell-based
[5] = system: Aspergillus niger ATCC 16404; assay: Minimum inhibitory concentration; assay type: cell-based; conditions: ATCC16404, Aspergillus niger
[6] = system: Bacillus subtilis ATCC 9372; assay: microbe, parasite or virus in culture; assay type: cell-based; conditions: ATCC9372
[7] = system: all types of microbes (Gram positive, Gram negative bacteria, yeast and mould; the chosen eight organisms); assay: Minimum inhibitory concentration, whole panel; assay type: cell-based; conditions: up to 1.0% concentration; bacteria, yeast and mould
[8] = system: Escherichia coli ATCC 10142; assay: Minimum inhibitory concentration; assay type: cell-based; conditions: ATCC10142
[9] = system: Malassezia furfur MTCC 1374; assay: Minimum inhibitory concentration; assay type: cell-based; conditions: MTCC1374
[10] = system: Staphylococcus aureus ATCC 6538S; assay: Minimum inhibitory concentration; assay type: cell-based; conditions: ATCC6538S
[11] = system: Propionibacterium acnes MTCC 1951; assay: Minimum inhibitory concentration; assay type: cell-based; conditions: Cutibacterium acnes, MTCC1951

For CCCCC(CC)COCC(O)CO (centres unmarked) [2-ethyl hexyl glyceryl ether, 3-(2-ethylhexyl) oxy 1,2-propanediol], the “Surface tension of water” value [1] is given as 32 dynes/cm.
With CCCCCCCC(=O)NCCO [Octanoyl MEA amide, N-(2-hydroxylethyl)caprylic acid amide] the “Surface tension of water” value ([2]; 0.05% level) was 38 dynes/cm, the “Surface tension of water” value ([2]; 0.1% concentration) was 30 dynes/cm and the MIC ([3]; Candida albicans ATCC 10231, read-out: MINIMUM INHIBITORY CONCENTRATION) was over 10000 µg/mL. For the same compound, the MIC ([3]; in Preservative Blend No 2 (10:10:80), Candida albicans, read-out: Concentration of individual component at MIC of Preservative Blend No 2) was 200 µg/mL, the MIC ([4]; Pseudomonas aeruginosa Immuno type IV, read-out: MINIMUM INHIBITORY CONCENTRATION) was over 10000 µg/mL and the MIC ([4]; in Preservative Blend No 2 (10:10:80), Pseudomonas aeruginosa, read-out: Concentration of individual component at MIC of Preservative Blend No 2) was 300 µg/mL. The MIC ([5]; in Preservative Blend No 2 (10:10:80), read-out: Concentration of individual component at MIC of Preservative Blend No 2) was 200 µg/mL, the MIC ([5]; read-out: MINIMUM INHIBITORY CONCENTRATION) was over 10000 µg/mL and the MIC ([6]; Bacillus subtilis ATCC 9372, read-out: MINIMUM INHIBITORY CONCENTRATION) was over 10000 µg/mL. For the same compound, the MIC ([6]; in Preservative Blend No 2 (10:10:80), Bacillus subtilis, read-out: Concentration of individual component at MIC of Preservative Blend No 2) was 200 µg/mL, the “Antimicrobial activity of the ingredient alone” value [7] was “did not exhibit any antibacterial activity” and the MIC ([8]; Escherichia coli ATCC 10142, read-out: MINIMUM INHIBITORY CONCENTRATION) was over 10000 µg/mL. The MIC ([8]; in Preservative Blend No 2 (10:10:80), Escherichia coli, read-out: Concentration of individual component at MIC of Preservative Blend No 2) was 300 µg/mL, the MIC ([9]; Malassezia furfur MTCC 1374, read-out: MINIMUM INHIBITORY CONCENTRATION) was over 10000 µg/mL and the MIC ([9]; in Preservative Blend No 2 (10:10:80), Malassezia furfur, read-out: Concentration of individual component at MIC of Preservative Blend No 2) was 400 µg/mL. For the same compound, the MIC ([10]; Staphylococcus aureus ATCC 6538S, read-out: MINIMUM INHIBITORY CONCENTRATION) was over 10000 µg/mL, the MIC ([10]; in Preservative Blend No 2 (10:10:80), Staphylococcus aureus, read-out: Concentration of individual component at MIC of Preservative Blend No 2) was 300 µg/mL and the MIC ([11]; Propionibacterium acnes MTCC 1951, read-out: MINIMUM INHIBITORY CONCENTRATION) was over 10000 µg/mL. The MIC ([11]; in Preservative Blend No 2 (10:10:80), Propionibacterium acnes, read-out: Concentration of individual component at MIC of Preservative Blend No 2) was 200 µg/mL.

Reference: patent US20130101530A1, “ANTIMICROBIAL PRESERVATIVE COMPOSITIONS FOR PERSONAL CARE PRODUCTS” (GALAXY SURFACTANTS LTD., priority 2011, published 2013)
